The source of these data is patent US9458137B2, “Substituted indol-5-ol derivatives and their therapeutical applications” (NantBioScience, Inc., priority 2012, dated 2016).

Assay [1] relates to TT human Thyroid carcinoma xenograft. Nature of the assay: TT thyroid carcinoma xenograft. The class given is in vivo, nude mouse. Conditions: TT xenograft. An excerpt: (§1) This example assesses NTW-3475's anti-tumor activity using a scid mouse xenograft models for leukemias and nude mouse xenograft models of endometrial, pancreatic and thyroid carcinomas. NTW-3475 combination therapy was also studied in murine xenografts.
FIGS. 36-38 depict the results of various concentrations of NTW-3456 on a nude mouse/xenograft the TT cell model of thyroid carcinoma.

Assay [2] has as its system AN3 human endometrial carcinoma carcinoma xenograft. Nature of the assay: AN3 endometrial carcinoma xenograft. The class given is in vivo, nude mouse. Conditions: AN3 xenograft.
Excerpt: as §1
FIGS. 39-41 depict the results of various concentrations of NTW-3456 on the AN3 nude mouse/xenograft model of endometrial carcinoma.

Each structure is given as a SMILES string.

As to `Cc1cc2c(F)c(Oc3nc(Nc4cc(C5CC5)[nH]n4)cc(N4CCN(C)CC4)n3)cc(F)c2[nH]1` [NTW-3475], the anti-tumor effect entry in assay [1] and in assay [2] was “anti-tumor effect” throughout.
